From EP4803511A1, “SMALL MOLECULE COMPOUND HAVING SULFONIC ACID OR SULFINIC ACID LACTONE STRUCTURE, COMPOSITION AND USE THEREOF” (Hangzhou Phecdamed Co., Ltd., priority 2023, dated 2025) come the findings set out here.

Experiment [1] concerns ampk. The experiment is described as follows: Zebrafish oxidative aging model (menadione), ampk gene expression by RT-qPCR. The class given is in vivo. The note with it: I-8 at 2.5 µg/mL, 22 hrs, 4 µM menadione; compared to the modeling group, statistical significance. The method, then:
Experimental animal: Healthy wild-type AB strain zebrafish at 48 hpf (hours post-fertilization)
Healthy AB strain zebrafish were taken as experimental animal. A zebrafish oxidative aging model was constructed using chemical mutagenesis with 4 µM menadione as the modeling drug. Fucoxanthin was used as a positive control compound. After treating the zebrafish oxidative aging model with different concentrations of I-8 for 22 hrs, changes in the reactive oxygen species (ROS) content, β-galactosidase activity, and the expression of three antioxidant and anti-aging related genes (Cu/Zn-sod, Mn-sod, and ampk) were respectively detected and statistically analyzed.
During the experiment, the modeling drug, positive compound, and I-8 were dispersed together in the culture water of zebrafish. […] Cell ROX™ Deep Red fluorescent probes and β-galactosidase staining kits were used to specifically label ROS and β-galactosidase in the fish, respectively, and the staining intensity was quantified using Image-Pro Plus software. After extracting RNA from the whole fish, the expression changes of three genes (Cu/Zn-sod, Mn-sod, and ampk) in the fish were detected at the mRNA level using Quantitative Real-time PCR (RT-qPCR). The data were statistically analyzed using GraphPad software.

Experiment [2] relates to TRPV1. Description: TRPV1 gene expression in HaCaT after capsaicin stimulation (q-PCR). The class given is cell-based, human. Conditions: 15 µM capsaicin, dose-dependent. An excerpt: (§1) In the following Test Examples 6-1 and 6-2, using immortalized keratinocytes (HaCaT) and UVB to establish a model, after the compound to be test was applied to HaCaT, the expression levels of TNF-α, IL-8, IL-1β and EP2 were detected; using immortalized keratinocytes (HaCaT) and capsaicin to establish a model, after the compound to be test was applied to HaCaT, the expression level of TRPV1 was detected, so as to evaluate the soothing effect of the test substance from multiple dimensions.
• 1) Cell inoculation: HaCaT cells were inoculated into a 6-well plate at 6 × 10^5/well, cultured in an incubator (37 °C, 5% CO2) for 12 hrs, and a normal control group (0 µM capsaicin + vehicle control), a model control group […] concentration group (15 µM capsaicin + low concentration compound), a medium concentration group (15 µM capsaicin + medium concentration compound), and a high concentration group (15 µM capsaicin + high concentration compound) were respectively provided. • 2) Induction and administration: The culture solution in the 6-well plate was discarded and the administration operation was carried out. The culture solution containing the test substance and the capsaicin stock solution was added according to the above drug group, and 1 mL was added to each well. […]

For experiment [3], the system named is type I collagen. The experiment is described as follows: Type I collagen expression in HSF human skin fibroblasts (ELISA). The note with it: 24 hrs, dose-dependent. The class given is cell-based. An excerpt:
Skin fragility is partly attributed to changes in hemidesmosomes and the expression downregulation of various collagen proteins (Collagen I, III, IV, VII) or laminins (such as LN-5) at the dermal-epidermal junction. LN-5 has been proven to be a component of anchoring fibers in the basement membrane of the skin, cornea, conjunctiva, and other tissues. LN-5 participates in cell-cell interactions through the mediation of integrins and proteoglycans, thereby playing a crucial role in cell adhesion, growth, migration, and differentiation. The appearance of wrinkles is closely related to the normal synthesis and expression of collagen and laminins. Therefore, the increase of the above collagen content and LN-5 can achieve a certain role in resisting wrinkles, and plays an important role in the aging process of the skin. Therefore, the anti-wrinkle effect of the compound to be tested was evaluated by detecting the level of Collage I protein of […] by ELISA, and detecting the transcription levels of epidermal cells (keratinocytes) III, IV, VII and LN -5 by Real-Time PCR. The following Test Examples 8-1 and 8-2 evaluated the anti-wrinkle efficacy of compounds using HaCaT human immortalized keratinocytes and HSF human skin fibroblasts. […]

In experiment [4] the test system is IL-8. Description: IL-8 gene expression in HaCaT after UVB radiation (q-PCR). The class given is cell-based, human. Conditions: UVB 80 mJ/cm^2, 24 hrs, dose-dependent.
Source text: as §1
• 1) Cell inoculation: HaCaT cells were inoculated into a 6-well plate at 6×10^5/well, cultured in an incubator (37°C, 5% CO2) for 12 hrs, and a normal control group (0 mJ/cm^2 + vehicle control), a model control group (80 mJ/cm^2 + vehicle control), a low concentration group (80 mJ/cm^2 + low concentration compound), a medium concentration group (80 mJ/cm^2 + medium concentration compound), and a high concentration group (80 mJ/cm^2 + high concentration compounds) were respectively provided. • 2) UVB modeling: The HaCaT cells were washed 3 times with D'Hanks before UVB radiation, 1 mL of D'Hanks was added into the wells, to make the cells to be immersed, and the control group was coated with tinfoil and placed in the dark. […]

Molecules are shown by their SMILES.

Consider `O=S1(=O)Oc2cc(O)ccc2-c2ccc(O)cc21` [Compound I-8], for which the “expression of the ampk gene” value in experiment [1] is given as “upregulated”. Besides, the “expression level of TRPV1” value in experiment [2] is “downregulating”. Besides, the “secretion of type I collagen” value in experiment [3] is on record as “improving the secretion of type I collagen”. In addition, the “expression level of IL-8” value in experiment [4] is given as “downregulating”.
